Publication PMC12356476, “Transferrin conjugated pH/NIR-responsive black phosphorus nanoplatform: A novel multimodal approach for breast cancer theranostics” (International Journal of Pharmaceutics: X, 2025)
In brackets after ≈: the same amount, converted by molar mass.

Legend:
[1] = test system: 4 T1-breast tumour bearing BALB/c mice; assay: Pharmacodynamic study (antitumour efficacy); format: in vivo; conditions: i.v., 5 mg/kg eq. to DOX, 14 days
Method: Female BALB/c mice were given a subcutaneous injection of 4 T1 cells (1.5 × 10^6 cells) in 100 μL of cold PBS, into the dorsal flank. The breast tumour appeared in 10–14 days while the mice were under close observation. Using a vernier caliper, the length and width were measured, and the tumour volume was measured. When the tumour volume reached about 75 to 100 mm^3, the mice were grouped randomly to 10 groups (n = 3):
Group I: Saline (i v injection).
Group II: Saline + NIR (i v injection).
Group III: BPNSs (Dose: 5 mg/Kg) (i v injection).
Group IV: BPNSs + NIR (Dose: 5 mg/Kg) (i v injection).
After 2 h of injection, the laser irradiation groups were exposed to 808 nm NIR laser (1 W/cm^2) for 5 min. The starting day of the treatment was considered as 0th day and checked for body weight in every day and tumour volume in every 2 days. The following equation was used for the measurement of tumour volume (V): Volumemm^3=Width^2XLength/2
(§1) On the last day of the treatment (Day 14), the BALB/c mice were euthanized by cervical dislocation and major organs were collected, washed and fixed with 4 % paraformaldehyde for Hematoxylin and Eosin (H&E) staining.

[2] = test system: 4 T1 cells; assay: Cellular uptake by flow cytometry; format: cell-based, murine; conditions: ~5 μg/mL, no irradiation
Method: To understand the cellular uptake of nanoformulations, flow cytometry was employed. 4 T1 cells were seeded into 6-well plates and allowed to adhere for 24 h prior to treatment. […] Followed by the removal of culture medium after 2 h of treatment, test samples were added, and the laser groups were exposed to NIR-II 808 nm laser for 5 min and kept in incubator for 2 h. The plates were taken and added with trypsin for the detachment of 4 T1 cells. It was then collected, centrifuged to separate free DOX and BP-based nanoformulation, and analyzed using a flow cytometer (BD Accuri). Untreated 4 T1 cells were used as a control group.

[3] = In vivo pharmacokinetics after i.v. injection; conditions: 5 mg/kg DOX equivalent, BALB/c mice, plasma, Mean ± SD, n = 3
Method: Female BALB/c mice (6–8 weeks old, 18–25 g) were obtained from a certified animal supplier and used for the study. Prior to the start of the experiment, all animals were housed under standard laboratory conditions (12-h light/dark cycle, temperature 22 ± 2 °C, relative humidity 50–60 %) with ad libitum access to food and water. A two-week acclimatization period was provided to allow the animals to adjust to the laboratory environment. […] Mice were randomly assigned to experimental groups (n = 3 per group), and all efforts were made to minimize suffering. The allocation and data collection were conducted in a blinded manner wherever applicable. No animals were excluded from the analysis unless stated otherwise.
Blood sample was collected in EDTA solution containing tubes at intervals ranging from 5 min to 48 h post-administration and then centrifuged to separate the plasma ([Zeng et al., 2019]).

[4] = test system: 4T1 tumour bearing BALB/c mice; assay: Blood (haematological) parameters estimation; format: in vivo
Method: A total of about 100 μL of blood was collected from the retroorbital route and collected into a tube with 10 μL of EDTA for a complete blood count such as RBC, WBC, platelets and hemoglobin analysis using Nihon Kohden blood analyzer (celltac alpha-MEK-6550, India).

[5] = test system: 4 T1 cells; assay: MTT cytotoxicity assay without irradiation; format: cell-based, murine; conditions: 4 T1 tumour cellular toxicity after 48 h
Method: The 4 T1 cell line, a murine breast tumour cell line derived from BALB/cf3H mice, was obtained from Elabsciences, Inc. The cytotoxicity of BP-based nanoformulation were evaluated using MTT assay. […] After 48 h, media was discarded and added with 50 μL of MTT reagent (2 mg/ml). The samples were then kept for 4 h of incubation and added with 50 μL DMSO to solubilize the formazan crystals. OD (optical density) was evaluated at 540 nm in a microplate reader (ELx800). Absorbance data were observed, and percentage tumour cell growth inhibition was measured using the following formula: Percentage growth inhibition=Absorbance of Blank−Absorbance of test/Absorbance of BlankX100

[6] = test system: 4 T1 cells; assay: In vitro PTT study (MTT with 808 nm NIR irradiation); format: cell-based, murine; conditions: 4 T1 tumour cellular toxicity after 48 h; 808 nm laser 1.0 W/cm^2 for 10 min
Method: Based on the results of cytotoxicity in 4 T1 cells produced by the test compounds, five concentrations were selected (100, 10, 1, 0.1, 0.001) to evaluate the extent of cytotoxicity in the presence of NIR radiation of 808 nm. 4 T1 cell line was seeded and incubated for 24 h. After refreshing the medium, the wells were added with samples at 37 °C for 4 h, and irradiated with 808 nm laser (1.0 W/cm^2) for 10 mins incubated till 48 h ([Phan et al., 2017]; [Xu et al., 2021]).
Absorbance data were observed, and percentage tumour cell growth inhibition was measured using the following formula: Percentage growth inhibition=Absorbance of Blank−Absorbance of test/Absorbance of BlankX100

[7] = test system: 4 T1-breast tumour bearing BALB/c mice; assay: Biodistribution study by in vivo fluorescence imaging; conditions: i.v., imaging 0.5 to 36 h post-injection
Text: In vivo biodistribution study of plain DOX, and BP-DOX@PDA-TF were monitored with an in vivo imaging system. […] Using IVIS® containing 620 nm and 780 nm filters respectively for excitation and emission, tumour accumulation trends were examined across various time periods following injection.

[8] = test system: 4 T1-breast tumour bearing BALB/c mice; assay: Histopathological analysis (H&E) of tumour tissues and other organs; format: in vivo; design: key to Tumour cells / Necrosed area / Malignant features like nuclear pleomorphism, hyperchromatism / inflammation / Muscle invasion: -: Nil; + few; ++ Many; +++ Abundant; conditions: for Malignant features like nuclear pleomorphism, hyperchromatism / Mitotic count/10HPF / Muscle invasion / Necrosed area / Tumour cells / inflammation: tumour tissue, 14 days
Method: as §1
Three BALB/c mice from each group were sacrificed after 14 days of treatment. The tissues (liver, spleen, lung, heart, kidney, and breast tumour) were isolated and fixed with 10 % formalin for 24 to 48 h. The tissue slides were examined using the LX-500 LED trinocular Research microscope, and pictures were captured using the MiaCam CMOS AR 6pro microscope camera coupled to image AR pro software. The slides were graded according to tumour cells, necrosed areas, malignant features like nuclear pleomorphism and hyperchromatism, inflammation, muscle invasion and mitotic count counted in 10 consecutive high-power fields (HPFs).

[9] = test system: chorioallantoic membrane (CAM) of fertilized chicken eggs; assay: Chorioallantoic membrane (CAM) assay; format: in vivo; conditions: 200 μL applied on day 8, observed at 8 and 24 h; DOX equivalent 200 μg
Method: The CAM assay is a method used to assess the effects of chemical agents/formulations on the developing, highly vascularized CAM. Fertilized chicken eggs were obtained, disinfected with 70 % ethanol, and incubated in a humidified environment. The eggs were kept horizontal and regularly rotated. […] Lenalidomide was considered as positive and normal saline (NS) as negative control. Following application, the egg's cavity was resealed with scotch tape and returned to the incubator. Changes in the blood vessel morphology were examined at 8 and 24 h after incubation ([Raychaudhuri et al., 2021]).

[10] = after 14 days of treatment and NIR Irradiation
[11] = after 14 days of treatment, no NIR irradiation

## COc1cccc2c1C(=O)c1c(O)c3c(c(O)c1C2=O)C[C@@](O)(C(=O)CO)C[C@@H]3O[C@H]1C[C@H](N)[C@H](O)[C@H](C)O1 [DOX, Doxorubicin]
[1]
  breast tumour growth suppression: failed to efficiently suppress the breast tumour growth
[2]
  cellular uptake (DOX fluorescence intensity): greater fluorescence intensity than BP-based NPs
[3]
  AUC(0-t): 2976.15 ± 1191.277 ng·h/mL
  AUC(0-∞): 3168.98 ± 1086.246 ng·h/mL
  Cmax: 469.73 ± 93.78 ng/mL
  Ke: 0.141 ± 0.05 h⁻¹
  T max: 4.98 ± 0 min
  t1/2: 5.47 ± 2.15 h
[4]; [10]
  HCT: 46.76±4.31%
  HGB: 13.88 ± 1.28 g/dL
  MCH: 16.35 ± 1.51 pg
  MCV: 50.93 ± 3.10 fL
  MPV: 6.39 ± 0.59 fL
  PDW: 14.34 ± 1.32 fL
  PLT: 924.2±85.27 ×10^3/µL
  RBC: 7.8±1.31 ×10^6/µL
  RDW‐CV: 13.61±1.26%
  RDW‐SD: 35.71 ± 3.29 fL
  WBC: 8.77±0.81 10^3/µL
[4]; [11]
  HCT: 42.69±4.36%
  HGB: 14.57 ± 0.42 g/dL
  MCH: 16.27 ± 1.64 pg
  MCV: 52.77 ± 4.81 fL
  MPV: 6.37 ± 1.21 fL
  PDW: 14.77 ± 2.06 fL
  PLT: 940±75.19 ×10^3/µL
  RBC: 9.39±1.2 ×10^6/µL
  RDW‐CV: 13.77±0.38%
  RDW‐SD: 38.17 ± 3.09 fL
  WBC: 9.73±1.5 10^3/µL
[5]
  IC50 value, Non NIR Irradiated: 2.84 µg/mL (≈ 5.23 µM)
[6]
  IC50 value, NIR Irradiated: 1.58 µg/mL (≈ 2.91 µM)
[7]
  fluorescence signal of DOX at the tumour region: significantly reduced signal
[8]; H&E, 14 days of treatment
  liver pathology: severe hypertrophy and liver congestion
[8]; NIR irradiated
  Malignant features like nuclear pleomorphism, hyperchromatism: +++
  Mitotic count/10HPF: 23 /10HPF
  Muscle invasion: -
  Necrosed area: +++
  Tumour cells: +++
  inflammation: -
[8]; NIR non-irradiated
  Malignant features like nuclear pleomorphism, hyperchromatism: ++
  Mitotic count/10HPF: 4 /10HPF
  Muscle invasion: -
  Necrosed area: -
  Tumour cells: +
  inflammation: +++
[9]
  toxicity to the CAM (coagulation, hemorrhage, vascular morphology, embryotoxicity): notable sign of toxicity such as coagulation, bleeding, and embryo toxicity
